Source: patent US9914736B2, “TrKA kinase inhibitors, compositions and methods thereof” (Merck Sharp & Dohme Corp., priority 2014, dated 2018)

The molecules below were run against human TrkA receptor (Homo sapiens (Human), UniProt P04629) (assay: DiscoverX PathHunter TrkA functional assay). Settings: U2OS cells expressing human TrkA-ProLink, Shc1-EA and p75NTR; compound 1 h, then NGF at ~80% of maximal response for 3 h; luminescence.
Assay type: cell-based
Experimental: TrkA functional activity was measured using a DiscoverX PathHunter assay. In this assay, U2OS cells express the human TrkA receptor as a fusion with the weakly complementing fragment of B-galactosidase, which DiscoverX calls “Prolink (PK)”; additionally, Shc1 is fused with a larger fragment, which is called “Enzyme Acceptor (EA)”. Activation of the TrkA receptor, upon NGF addition, results in the kinase domain being phosphorylated, resulting in subsequent recruitment of Shc1-EA protein. That recruitment results in an active B-galactosidase enzyme that is detected by addition of a chemiluminescent substrate. The human p75^NTR protein was also expressed as a co-receptor for NGF.
All reagents were purchased from DiscoverX, except for the receptor agonists (NGF, BDNF, NT3) which were purchased from Peprotech. Cells were expanded and frozen into cryovials, and stored in the vapor phase of liquid nitrogen, and thawed immediately before use. Thawed cells were added to a 384-well plate at 7500 cells/well, and allowed to incubate overnight. Compound at various concentrations was added the following morning and allowed to incubate on cells for 1 h. Then, NGF was added at a concentration sufficient to elicit ˜80% of a maximal response and allowed to incubate for 3 h at ambient temperature. DiscoverX PathHunter detection reagent was then added and the plate was further incubated for 1 h in the dark. The plate was then read via luminescence on the Perkin Elmer Envision.

Sequence of human TrkA receptor (P04629 33-796): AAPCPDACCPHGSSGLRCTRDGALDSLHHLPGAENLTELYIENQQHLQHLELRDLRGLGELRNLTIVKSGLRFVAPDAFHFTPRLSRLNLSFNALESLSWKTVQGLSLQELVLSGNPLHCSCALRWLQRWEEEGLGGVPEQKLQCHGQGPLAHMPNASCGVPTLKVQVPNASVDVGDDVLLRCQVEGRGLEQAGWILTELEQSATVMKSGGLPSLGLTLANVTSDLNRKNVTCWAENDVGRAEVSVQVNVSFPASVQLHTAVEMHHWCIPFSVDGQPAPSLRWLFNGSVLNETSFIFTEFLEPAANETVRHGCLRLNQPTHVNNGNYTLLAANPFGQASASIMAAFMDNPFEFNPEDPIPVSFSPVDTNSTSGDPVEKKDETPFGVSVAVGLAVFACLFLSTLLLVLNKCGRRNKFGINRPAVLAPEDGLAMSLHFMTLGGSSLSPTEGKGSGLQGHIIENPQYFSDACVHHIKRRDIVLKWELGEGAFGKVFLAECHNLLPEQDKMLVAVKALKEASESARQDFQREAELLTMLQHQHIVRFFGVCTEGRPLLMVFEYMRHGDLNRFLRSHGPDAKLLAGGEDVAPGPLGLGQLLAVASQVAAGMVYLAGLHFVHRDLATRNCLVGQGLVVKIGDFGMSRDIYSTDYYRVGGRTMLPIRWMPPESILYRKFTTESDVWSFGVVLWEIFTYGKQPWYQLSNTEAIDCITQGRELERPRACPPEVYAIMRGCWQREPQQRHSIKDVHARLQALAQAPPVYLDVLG

Question: For `Cn1ccc(-c2cc(C(=O)Nc3cn(CCO)nc3-c3ccccc3)c(F)cc2C(F)(F)F)n1` [Compound 109, 2-fluoro-N-(1-(2-hydroxyethyl)-3-phenyl-1H-pyrazol-4-yl)-5-(1-methyl-1H-pyrazol-3-yl)-4-(trifluoromethyl)benzamide], which IC50 is on record?
Answer: Its IC50 is 16 nM.

Question: With `Cc1cccnc1-c1cc(C(=O)Nc2cc(-c3ccncc3)nn2-c2ccc(F)cc2)ccc1C(F)(F)F` [Compound 31, N-[1-(4-fluorophenyl)-3-pyridin-4-yl-1H-pyrazol-5-yl]-3-(3-methylpyridin-2-yl)-4-(trifluoromethyl)benzamide] as the molecule, how does the IC50 read?
Answer: The IC50 was 860 nM.

Question: How did the IC50 turn out when `Cn1ccc(-c2cc(C(=O)Nc3cn[nH]c3-c3ccccc3)c(Cl)cc2C(F)(F)F)n1` [Compound 49, 2-chloro-5-(1-methyl-1H-pyrazol-3-yl)-N-(5-phenyl-1H-pyrazol-4-yl)-4-(trifluoromethyl)benzamide] was run?
Answer: Its IC50 is 5.8 nM.

Question: Which IC50 does the source give for `NC(=O)OCc1cc(NC(=O)c2cc(-c3ncccn3)c(C(F)(F)F)cc2F)n(-c2ccc(F)cc2)n1` [Compound 110, (5-(2-fluoro-5-(pyrimidin-2-yl)-4-(trifluoromethyl)benzamido)-1-(4-fluorophenyl)-1H-pyrazol-3-yl)methyl carbamate] here?
Answer: Its IC50 is 7 nM.

Question: With `Cc1nc(-c2nc(C)n(C)c2NC(=O)c2ccc(C(F)(F)F)c(-c3ccn(C)n3)c2)cs1` [Compound 53, N-[1,2-dimethyl-4-(2-methyl-1,3-thiazol-4-yl)-1H-imidazol-5-yl]-3-(1-methyl-1H-pyrazol-3-yl)-4-(trifluoromethyl)benzamide] as the molecule, how does the IC50 read?
Answer: The IC50 was 590 nM.

Question: With `Cn1ccc(-c2cc(C(=O)Nc3c(-c4ccccc4)ncn3C)ccc2C(F)(F)F)n1` [Compound 12, N-(1-methyl-4-phenyl-1H-imidazol-5-yl)-3-(1-methyl-1H-pyrazol-3-yl)-4-(trifluoromethyl)benzamide] as the molecule, how does the IC50 read?
Answer: Its IC50 is 19 nM.

Question: How did the IC50 turn out when `Cc1c(Cl)cc(C(=O)Nc2cc(-c3ccncc3)nn2-c2ccccc2)cc1Cl` [Compound 23, 3,5-dichloro-4-methyl-N-(1-phenyl-3-pyridin-4-yl-1H-pyrazol-5-yl)benzamide] was run?
Answer: Its IC50 is 670 nM.

Question: With `Cc1cc(-n2nc(C(=O)N(C)C)cc2NC(=O)c2ccc(C(F)(F)F)c(-c3ccn(C)n3)c2)[nH]n1` [Compound 7, N,N,5′-trimethyl-5-({[3-(1-methyl-1H-pyrazol-3-yl)-4-(trifluoromethyl)phenyl]carbonyl}amino)-2′H-1,3′-bipyrazole-3-carboxamide] as the molecule, how does the IC50 read?
Answer: Its IC50 is 32 nM.

Question: `Cn1ccc(-c2cc(C(=O)Nc3cc(Cc4nnn(CCO)n4)nn3-c3ccc(F)cc3)ccc2C(F)(F)F)n1` [Compound 77, N-[1-(4-fluorophenyl)-3-{[2-(2-hydroxyethyl)-2H-tetrazol-5-yl]methyl}-1H-pyrazol-5-yl]-3-(1-methyl-1H-pyrazol-3-yl)-4-(trifluoromethyl)benzamide] was tested. Which IC50 did it give?
Answer: The IC50 was 14 nM.

Question: How did the IC50 turn out when `O=C(Nc1cc(-c2ccncc2)nn1-c1ccc(F)cc1)c1ccc(C(F)(F)F)c(-c2ncns2)c1` [Compound 26, N-[1-(4-fluorophenyl)-3-pyridin-4-yl-1H-pyrazol-5-yl]-3-(1,2,4-thiadiazol-5-yl)-4-(trifluoromethyl)benzamide] was run?
Answer: Its IC50 is 350 nM.

Question: How did the IC50 turn out when `Cc1nc(-c2cc(C(=O)Nc3cc(-c4ccncc4)nn3-c3ccc(F)cc3)ccc2C(F)(F)F)no1` [Compound 29, N-[1-(4-fluorophenyl)-3-pyridin-4-yl-1H-pyrazol-5-yl]-3-(5-methyl-1,2,4-oxadiazol-3-yl)-4-(trifluoromethyl)benzamide] was run?
Answer: The IC50 was 530 nM.

Question: Which IC50 does the source give for `Cc1c(-c2cnn(C)c2)nn(-c2ccccc2)c1NC(=O)c1ccc(C(F)(F)F)c(-c2ccn(C)n2)c1` [Compound 44, N-(1′,4-dimethyl-1-phenyl-1H,1′H-3,4′-bipyrazol-5-yl)-3-(1-methyl-1H-pyrazol-3-yl)-4-(trifluoromethyl)benzamide] here?
Answer: The IC50 was 11 nM.

Question: `Cc1cnn(-c2ccccc2)c1NC(=O)c1cc(-c2ccn(C)n2)c(C(F)(F)F)cc1Cl` [Compound 46, 2-chloro-N-(4-methyl-1-phenyl-1H-pyrazol-5-yl)-5-(1-methyl-1H-pyrazol-3-yl)-4-(trifluoromethyl)benzamide] was tested. Which IC50 did it give?
Answer: Its IC50 is 13 nM.

Question: `Cc1cc(-n2nc(-c3ccc(=O)[nH]n3)cc2NC(=O)c2ccc(C(F)(F)F)c(-c3ncccn3)c2)n[nH]1` [Compound 57, N-[5′-methyl-3-(6-oxo-1,6-dihydropyridazin-3-yl)-1′H-1,3′-bipyrazol-5-yl]-3-pyrimidin-2-yl-4-(trifluoromethyl)benzamide] was tested. Which IC50 did it give?
Answer: The IC50 was 78 nM.

Question: For `O=C(Nc1cc(Cc2n[nH]c(=O)o2)nn1-c1ccc(F)cc1)c1cc(-c2ncccn2)c(C(F)(F)F)cc1F` [Compound 113, 2-fluoro-N-(1-(4-fluorophenyl)-3-((5-oxo-4,5-dihydro-1,3,4-oxadiazol-2-yl)methyl)-1H-pyrazol-5-yl)-5-(pyrimidin-2-yl)-4-(trifluoromethyl)benzamide], which IC50 is on record?
Answer: Its IC50 is 15 nM.

Question: For `NC(=O)c1ccc(-c2cc(NC(=O)c3cc(-c4ncccn4)c(C(F)(F)F)cc3F)n(-c3ccc(F)cc3)n2)cc1` [Compound 81, N-[3-(4-carbamoylphenyl)-1-(4-fluorophenyl)-1H-pyrazol-5-yl]-2-fluoro-5-pyrimidin-2-yl-4-(trifluoromethyl)benzamide], which IC50 is on record?
Answer: Its IC50 is 0.76 nM.

Question: Which IC50 does the source give for `Cc1cc(-n2nc(CNCCO)cc2NC(=O)c2ccc(C(F)(F)F)c(-c3ccn(C)n3)c2)[nH]n1` [Compound 68, N-(3-{[(2-hydroxyethyl)amino]methyl}-5′-methyl-2′H-1,3′-bipyrazol-5-yl)-3-(1-methyl-1H-pyrazol-3-yl)-4-(trifluoromethyl)benzamide] here?
Answer: The IC50 was 240 nM.

Question: For `O=C(Nc1cc(-c2ccncc2)nn1-c1ccc(F)cc1)c1ccc(C(F)(F)F)c(-c2cccnc2)c1` [Compound 35, N-[1-(4-fluorophenyl)-3-pyridin-4-yl-1H-pyrazol-5-yl]-3-pyridin-3-yl-4-(trifluoromethyl)benzamide], which IC50 is on record?
Answer: Its IC50 is 1700 nM.

Question: For `O=C(Nc1cc(-c2ccncc2)nn1-c1ccc(F)cc1)c1ccc(Cl)c(-c2cc[nH]n2)c1` [Compound 42, 4-chloro-N-[1-(4-fluorophenyl)-3-pyridin-4-yl-1H-pyrazol-5-yl]-3-(1H-pyrazol-3-yl)benzamide], which IC50 is on record?
Answer: Its IC50 is 110 nM.

Question: With `Cn1ccc(-c2cc(C(=O)Nc3c4c(nn3-c3ccc(F)cc3)CCC4)ccc2C(F)(F)F)n1` [Compound 82, N-[2-(4-fluorophenyl)-2,4,5,6-tetrahydrocyclopenta[c]pyrazol-3-yl]-3-(1-methyl-1H-pyrazol-3-yl)-4-(trifluoromethyl)benzamide] as the molecule, how does the IC50 read?
Answer: The IC50 was 33 nM.

Question: Which IC50 does the source give for `Cc1cccc(-c2cc(C(=O)Nc3cc(-c4ccncc4)nn3-c3ccc(F)cc3)ccc2C(F)(F)F)n1` [Compound 30, N-[1-(4-fluorophenyl)-3-pyridin-4-yl-1H-pyrazol-5-yl]-3-(6-methylpyridin-2-yl)-4-(trifluoromethyl)benzamide] here?
Answer: Its IC50 is 5.5 nM.

Question: `O=C(Nc1cc(-c2ccncc2)nn1-c1ccccc1)c1cc(-c2cc[nH]n2)c(C(F)(F)F)cc1Cl` [Compound 39, 2-chloro-N-(1-phenyl-3-pyridin-4-yl-1H-pyrazol-5-yl)-5-(1H-pyrazol-3-yl)-4-(trifluoromethyl)benzamide] was tested. Which IC50 did it give?
Answer: Its IC50 is 2.9 nM.

Question: Which IC50 does the source give for `Cn1ccc(-c2cc(C(=O)Nc3c4c(nn3-c3ccccc3)CC(=O)NC4)c(F)cc2C(F)(F)F)n1` [Compound 108, 2-fluoro-5-(1-methyl-1H-pyrazol-3-yl)-N-(6-oxo-2-phenyl-4,5,6,7-tetrahydro-2H-pyrazolo[4,3-c]pyridin-3-yl)-4-(trifluoromethyl)benzamide] here?
Answer: Its IC50 is 4.6 nM.

Question: With `Cn1ccc(-c2cc(C(=O)Nc3[nH]ncc3-c3ccccc3)c(Cl)cc2C(F)(F)F)n1` [Compound 45, 2-chloro-5-(1-methyl-1H-pyrazol-3-yl)-N-(4-phenyl-1H-pyrazol-5-yl)-4-(trifluoromethyl)benzamide] as the molecule, how does the IC50 read?
Answer: Its IC50 is 7 nM.

Question: Which IC50 does the source give for `O=C(Nc1cc(-c2ncccn2)nn1-c1ccc(F)cc1)c1cc(-c2cc[nH]n2)c(C(F)(F)F)cc1F` [Compound 64, 2-fluoro-N-[1-(4-fluorophenyl)-3-pyrimidin-2-yl-1H-pyrazol-5-yl]-5-(1H-pyrazol-3-yl)-4-(trifluoromethyl)benzamide] here?
Answer: Its IC50 is 22 nM.

Question: For `CC(=O)n1cc(NC(=O)c2ccc(C(F)(F)F)c(-c3ccn(C)n3)c2)c(-c2ccccc2)n1` [Compound 33, N-(1-acetyl-3-phenyl-1H-pyrazol-4-yl)-3-(1-methyl-1H-pyrazol-3-yl)-4-(trifluoromethyl)benzamide], which IC50 is on record?
Answer: The IC50 was 18 nM.

Question: Which IC50 does the source give for `Cc1nc(-c2ccccc2)c(NC(=O)c2ccc(C(F)(F)F)c(-c3ccn(C)n3)c2)n1C` [Compound 14, N-(1,2-dimethyl-4-phenyl-1H-imidazol-5-yl)-3-(1-methyl-1H-pyrazol-3-yl)-4-(trifluoromethyl)benzamide] here?
Answer: The IC50 was 20 nM.

Question: Which IC50 does the source give for `Cc1csc(-c2cc(C(=O)Nc3cc(-c4cnn(C)c4)nn3-c3cc(C)[nH]n3)ccc2C(F)(F)F)n1` [Compound 5, N-(1″,5-dimethyl-1H,1″H-3,1′:3′,4″-terpyrazol-5′-yl)-3-(4-methyl-1,3-thiazol-2-yl)-4-(trifluoromethyl)benzamide] here?
Answer: The IC50 was 0.85 nM.

Question: How did the IC50 turn out when `O=C(Nc1cc(Cc2n[nH]c(=O)s2)nn1-c1ccc(F)cc1)c1cc(-c2ncccn2)c(C(F)(F)F)cc1F` [Compound 89, 2-fluoro-N-(1-(4-fluorophenyl)-3-((5-oxo-4,5-dihydro-1,3,4-thiadiazol-2-yl)methyl)-1H-pyrazol-5-yl)-5-(pyrimidin-2-yl)-4-(trifluoromethyl)benzamide] was run?
Answer: Its IC50 is 4.8 nM.

Question: `CCn1ccc(-c2cc(C(=O)Nc3cc(C)nn3-c3ccc(F)cc3)ccc2C(F)(F)F)n1` [Compound 75, 3-(1-ethyl-1H-pyrazol-3-yl)-N-[1-(4-fluorophenyl)-3-methyl-1H-pyrazol-5-yl]-4-(trifluoromethyl)benzamide] was tested. Which IC50 did it give?
Answer: The IC50 was 89 nM.

Question: For `Cc1nc(NC(=O)c2ccc(C(F)(F)F)c(-c3ccn(C)n3)c2)c(-c2ccccc2)s1` [Compound 72, N-(2-methyl-5-phenyl-1,3-thiazol-4-yl)-3-(1-methyl-1H-pyrazol-3-yl)-4-(trifluoromethyl)benzamide], which IC50 is on record?
Answer: Its IC50 is 62 nM.

Question: `CNC(=O)c1cc(NC(=O)c2cc(-c3ncccn3)c(C(F)(F)F)cc2F)n(-c2ccc(F)cc2)n1` [Compound 86, 5-(2-fluoro-5-(pyrimidin-2-yl)-4-(trifluoromethyl)benzamido)-1-(4-fluorophenyl)-N-methyl-1H-pyrazole-3-carboxamide] was tested. Which IC50 did it give?
Answer: The IC50 was 7 nM.
